Source: patent EP4722219A1 (Gan & Lee Pharmaceuticals Co., Ltd., priority 2023, dated 2024)
Like-named read-outs stand apart in the source and are kept apart here.

Key:
SMARCA2 [1] = biological target: T1, SMARCA2 (Homo sapiens, UniProt P51531); experiment: SMARCA2 degradation in HeLa cells (Western blot); assay type: cell-based; design: endogenous in cells; conditions: 4 hours
Procedure: (§1) Test Example 10 Degradation rate (%) of SMARCA2/4 by the PROTAC compounds of the present invention in HeLa cells and SW1573 cells
(§2) HeLa cells were seeded at 1.2 x 10^5 cells/well in a 6-well plate. 2 mL of EMEM medium supplemented with 10% FBS was added to each well and the culture dish was incubated overnight to allow the cells to adhere. The next day, 1 µL of 160 µM and 1 µL of 2 µM compound were added to the corresponding wells, resulting in final compound concentrations of 80 nM and 1 nM, respectively, and a final DMSO concentration of 0.05%. The cells were returned to the incubator and incubated for another 4 hours.
(§3) After 4 hours, cells were harvested, the culture medium was aspirated, and the cells were rinsed once with 1 mL/well PBS. The PBS was aspirated, and 40 µL/well of RIPA lysis buffer containing protease inhibitors was added. After lysis and centrifugation, total protein extracts were obtained, and protein concentration in the extracts was determined by BCA assay. Protein electrophoresis was performed by SDS-PAGE, followed by constant voltage electrophoresis at 100 V for 60 minutes and the protein was then transferred to a PVDF membrane. The PVDF membrane was blocked in 5% skim milk powder for 1 hour at room temperature. Primary antibodies (SMARCA2: CST#11966S, SMARCA4: CST#49360S, GAPDH: CST#5174S) were added and incubated overnight at 4°C. After washing the membrane, secondary antibodies were added and incubated at room temperature for 1 hour (protected from the light). After washing, the membrane was exposed using an Odyssey luminometer. Grayscale analysis of bands was performed using Image Studio software.
(§4) The degradation rate (%) of SMARCA2/4 by the PROTAC compounds of the present invention in HeLa cells and SW1573 cells is shown in Table 10. Table 10 Degradation rate of SMARCA2/4 by PROTAC compounds of the present invention in HeLa cells and SW1573 cells (%)

SMARCA2 [2] = biological target: T1, SMARCA2; experiment: SMARCA2 degradation in SW1573 cells (Western blot); assay type: cell-based; design: endogenous in cells; host or cells: SW1573; conditions: 24 hours
Procedure: as §1
as §2, with “SW1573” for “HeLa”, “2x10^5Cells/well” for “1.2 x 10^5 cells/well”, “and” for “and the culture dish”, “cell attachment.” for “the cells to adhere.”, “wells for treatment,” for “wells,”, “24” for “4”
as §3, with “After 24” for “After 4”, “the” for “the culture”
as §4

CRBN protein = CRBN protein (Homo sapiens, UniProt Q96SW2); experiment: Binding activity to E3 ubiquitin ligase CRBN (HTRF competitive binding kit, Thalidomide-Red)
Excerpt: Binding activity of the E3 ligase inhibitor disclosed in the present invention to E3 ubiquitin ligase CRBN
CRBN binding activity test kit (CEREBLON BINDING KITS (PE, 64BD CRBN PEG).
The detection is based on homogeneous time-resolved fluorescence (HTRF) technology.
This kit uses a europium-labeled GST antibody (GST Eu Cryptate Antibody) as the donor and XL665-labeled thalidomide (Thalidomide-Red reagent) as the receptor. The donor binds to the GST-tagged CRBN protein.
The donor and receptor were each diluted 50-fold using the buffer provided in the kit (PROTAC binding buffer 1). The CRBN protein was diluted 45-fold. An 8mM solution of the compound disclosed herein was diluted 10-fold using the diluent provided in the kit (1X diluent), followed by 7 successive 5-fold serial dilutions of the resulting solution.
The ratio of the acceptor and donor emission signals was calculated for each individual well.
IC50 values was calculated based on compound concentration, Ratio, and coefficient of variation using GraphPad Prism.

Structure (SMILES) | Degradation rate of SMARCA2 in HeLa cells (%) (SMARCA2 [1]; 1 nM) | Degradation rate of SMARCA2 in HeLa cells (%) (SMARCA2 [1]; 80 nM) | Degradation rate of SMARCA2 in SW1573 cells (%) (SMARCA2 [2]; 1 nM) | Degradation rate of SMARCA2 in SW1573 cells (%) (SMARCA2 [2]; 80 nM) | IC50 (CRBN protein; competition with XL665-labeled thalidomide for GST-tagged CRBN protein, HTRF, 3 hours at room temperature, read-out: IC50) | IC50 (CRBN protein)
Cn1c(=O)n(C2CCC(=O)NC2=O)c2cc3c(cc21)C1(CCN(C2CN(c4cc(-c5ccccc5O)nnc4N)C2)CC1)CO3 (centres unmarked) [SM-P-38, 3-(1'-(1-(3-amino-6-(2-hydroxyphenyl)pyridazin-4-yl)azetidin-3-yl)-1-methyl-2-oxo-1,2-dihydro-3H,6H-spiro[benzofuro[5,6-d]imidazole-7,4'-piperidin]-3-yl)piperidine-2,6-dione] | -6% | 10% | 24% | 29% |  | 
Nc1nnc(-c2ccccc2O)cc1C#CC1CCC2(CC1)CC(N1CCC3(CC1)COc1cc(F)c(C(=O)N[C@H]4CCC(=O)NC4=O)cc13)C2 (some centres unmarked) [SM-P-21] | 15% | 4% | -12% | 14% |  | 
Cn1c(=O)n(C2CCC(=O)NC2=O)c2cc3c(cc21)C1(CCN(C[C@H]2CC[C@H](Cn4cc(-c5cc(-c6ccccc6O)nnc5N)cn4)CC2)CC1)CO3 (some centres unmarked) [SM-P-30, 3-(1'-(((1r,4r)-4-((4-(3-amino-6-(2-hydroxyphenyl)pyridazin-4-yl)-1H-pyrazol-1-yl)methyl)cyclohexyl)methyl)-1-methyl-2-oxo-1,2-dihydro-3H,6H-spiro[benzofuro[5,6-d]imidazole-7,4'-piperidin]-3-yl)piperidine-2,6-dione] | 99% | 90% | 99% | 97% |  | 
Cn1c(=O)n(C2CCC(=O)NC2=O)c2cc3c(cc21)C1(CCN(C[C@H]2CC[C@H](n4cc(-c5cc(-c6ccccc6O)nnc5N)cn4)CC2)CC1)CO3 (some centres unmarked) [SM-P-36] | 99% | 97% | 100% | 98% |  | 
Cn1c(=O)n(C2CCC(=O)NC2=O)c2cc3c(cc21)C1(CCN(C2CC4(CCC(C#Cc5cc(-c6ccccc6O)nnc5N)CC4)C2)CC1)CO3 (centres unmarked) [SM-P-4, 3-(1'-(7-((3-amino-6-(2-hydroxyphenyl)pyridazin-4-yl)ethynyl)spiro[3.5]nonan-2-yl)-1-methyl-2-oxo-1,2-dihydro-3H,6H-spiro[benzofuro[5,6-d]imidazole-7,4'-piperidin]-3-yl)piperidine-2,6-dione] | 100% | 99% | 100% | 100% |  | 
COc1cc2c(cc1C(=O)N[C@H]1CCC(=O)NC1=O)C1(CCN(C3CC4(CCC(C#Cc5cc(-c6ccccc6O)nnc5N)CC4)C3)CC1)CO2 (stereo partly drawn) [SM-P-14, (S)-1'-(7-((3-amino-6-(2-hydroxyphenyl)pyridazin-4-yl)ethynyl)spiro[3.5]nonan-2-yl)-N-(2,6-dioxopiperidin-3-yl)-6-methoxy-2H-spiro[benzofuran-3,4'-piperidin]-5-carboxamide] | -7% | -3% | 22% | 14% |  | 
Cn1c(=O)n(C2CCC(=O)NC2=O)c2ccc3c(c21)OCC31CCN(C[C@H]2CC[C@H](Cn3cc(-c4cc(-c5ccccc5O)nnc4N)cn3)CC2)CC1 (some centres unmarked) [SM-P-29, 3-(1'-(((1r,4r)-4-((4-(3-amino-6-(2-hydroxyphenyl)pyridazin-4-yl)-1H-pyrazol-1-yl)methyl)cyclohexyl)methyl)-1-methyl-2-oxo-1,2-dihydro-3H,7H-spiro[benzofuro[6,7-d]imidazole-6,4'-piperidin]-3-yl)piperidine-2,6-dione] | 100% | 90% | 100% | 99% |  | 
Cn1c(=O)n(C2CCC(=O)NC2=O)c2ccc3c(c21)OCC31CCN(C[C@H]2CC[C@H](n3cc(-c4cc(-c5ccccc5O)nnc4N)cn3)CC2)CC1 (some centres unmarked) [SM-P-35] | 100% | 99% | 100% | 100% |  | 
Nc1nnc(-c2ccccc2O)cc1C#CC1CCC2(CC1)CC(N1CCC3(CC1)COc1cc(C(=O)N[C@H]4CCC(=O)NC4=O)c(F)cc13)C2 (some centres unmarked) [SM-P-8] | 28% | 64% | 9% | 61% |  | 
Cn1c(=O)n(C2CCC(=O)NC2=O)c2ccc3c(c21)OCC31CCN(C2CN(c3cc(-c4ccccc4O)nnc3N)C2)CC1 (centres unmarked) [SM-P-37, 3-(1'-(1-(3-amino-6-(2-hydroxyphenyl)pyridazin-4-yl)azetidin-3-yl)-1-methyl-2-oxo-1,2-dihydro-3H,7H-spiro[benzofuro[6,7-d]imidazole-6,4'-piperidin]-3-yl)piperidine-2,6-dione] | 24% | 33% |  |  |  | 
Cn1c(=O)n(C2CCC(=O)NC2=O)c2ccc3c(c21)OCC31CCN(C2CC3(CCC(C#Cc4cc(-c5ccccc5O)nnc4N)CC3)C2)CC1 (centres unmarked) [SM-P-26, 3-(1'-(7-((3-amino-6-(2-hydroxyphenyl)pyridazin-4-yl)ethynyl)spiro[3.5]nonan-2-yl)-1-methyl-2-oxo-1,2-dihydro-3H,7H-spiro[benzofuro[6,7-d]imidazole-6,4'-piperidin]-3-yl)piperidine-2,6-dione] | 100% | 99% | 100% | 99% |  | 
O=C1CCC(Nc2ccc3c(c2)N2CCNC[C@@H]2CO3)C(=O)N1 (stereo partly drawn) [Compound C9, 3-(((R)-1,2,3,4,4a,5-Hexahydrobenzo[b]pyrazine[1,2-d][1,4]oxazine-9-yl)amino)piperidine-2,6-dione] |  |  |  |  | 12.8 µM | 
COc1cc2c(cc1C(=O)N[C@H]1CCC(=O)NC1=O)OCC[C@H]1CNCCN21 [Compound B9, (S)-N-((S)-2,6-Dioxopiperidin-3-yl)-10-methoxy-2,3,4,4a,5,6-hexahydro-1H-benzo[b]pyrazine[1,2-d][1,4]oxazepine-9-carboxamide] |  |  |  |  |  | 13 µM
